Results reported in patent US11957701B2, “Therapy and new therapeutic agent for blood cancer” (Delta-Fly Pharma, Inc., priority 2020, dated 2024).
pIC50: −log10 of the molar value. Where a name gives a salt, the structure may show the parent alone. Read-outs that look alike come from different tables or passages of the source.

Tested on: MV4-11
Test: Combined use under low protein content, MTT assay after 48 hours
Type: cell-based, human
Conditions: MV4-11, low protein content

pIC50 (read-out: IC50 value of venetoclax alone) | pIC50 (Homo sapiens, read-out: IC50 value of DFP-10917 alone) | Compound
10.01 |  | venetoclax
 | 5.82 | N#C[C@H]1[C@H](O)[C@@H](CO)O[C@H]1n1ccc(N)nc1=O [DFP-10917, 4-amino-1-(2-cyano-2-deoxy-β-D-arabinofuranosyl)-2(1H)-pyrimidinone monohydrochloride]
